US20040241860A1, “Method of breeding glyphosate resistant plants” (Advanta Technology Limited, priority 1998, published 2004)

How the values were obtained:
Format in all cases: in vivo, corn
[1] = system: progeny of crosses between heterozygous resistant plants and homozygous susceptible plants; assay: Evaluation of progeny from Sprayed and Unsprayed classes: counts of resistant and susceptible plants after glyphosate spray (Example 2); conditions: progeny sprayed 64 oz per acre V3-V4, counted ten days post-application
Description: (§1) A second application of 32oz per acre was applied to the heterozyous resistant plants at the V7 to V8 stage of growth (9 days later). These plants comprised the “Sprayed” class in subsequent experiments. In HI, none of the plants were sprayed with glyphosate and these plants comprised the “Unsprayed” class in subsequent experiments. At both locations, crosses were made between the heterozygous resistant plants and homozygous susceptible plants.
Progeny of the crosses from each class were planted at the HI location. All progeny plants from each class were sprayed with glyphosate at a rate of 64 oz per acre during the V3 to V4 stages of growth. Ten days post-application, counts of resistant and susceptible plants were made for each class. The expected segregation, 1:1 resistant to susceptible, was compared to the observed segregation for each class (Table 2).

[2] = system: homozygous susceptible plants (rr); assay: Foliar glyphosate spray of known susceptible check plants, plant mortality (Example 1)
Description: (§2) Progeny of a cross between a homozygous resistant plant (RR) and a homozygous susceptible plant (rr) were planted at the Garst Research Centre near Slater, Iowa, and at the Hawaii Research Centre near Kunia, Hi. It was expected that none of the progeny would segregate for resistance to foliar applications of glyphosate. To test this, the progeny growing at the IA test site were sprayed with glyphosate at a rate of 64 oz per acre during the V5 and V6 stages of growth (26 days after planting). At the same time and rate, several plants in a row of known susceptible plants were sprayed. All of the sprayed plots were examined for plant mortality 7 days after spraying. As expected, all of the susceptible check plants were dead and while all of the putative heterozygous resistant plants were alive (Table 1).

[3] = system: heterozygous resistant plants (Rr, Glyphosate-resistance event GA21); assay: Foliar glyphosate spray of putative heterozygous resistant plants, plant mortality (Example 1)
Description: as §2, §1

[4] = progeny of Unsprayed class (parents not sprayed), 182 plants

O=C(O)CNCP(=O)(O)O [glyphosate]
Observed Segregation: Resistant plants ([1]; progeny of Sprayed class (parents 64 oz per acre V5-V6 plus 32 oz per acre V7-V8), 504 plants): 504 | Observed Segregation: Resistant plants [1, 4]: 100 | Observed Segregation: Susceptible plants [1, 4]: 82 | Observed Segregation ([2]; class Homozygous Susceptible, 64 oz per acre at the same time and rate, examined 7 days after spraying): All Susceptible | plant mortality ([2]; susceptible check plants, 64 oz per acre, 7 days after spraying): dead | Observed Segregation ([3]; class Heterozygous Resistant, 64 oz per acre at V5 and V6 stages (26 days after planting), examined 7 days after spraying): All Resistant | plant mortality ([3]; putative heterozygous resistant plants, 64 oz per acre, V5 and V6, 7 days after spraying): alive
